In PMC10675777, “Experimental Evaluation of the Hypersensitivity Reactions of a New Glycopeptide Antibiotic Flavancin in Animal Models” (Pharmaceuticals, 2023):
Counter-ions that a name gives are not always drawn. Like-named read-outs stand apart in the source and are kept apart here.

How the values were obtained:
guinea pigs [1] = settings: Evans blue
Procedure: In the study of active skin anaphylaxis, the sensitizing doses of flavancin were administered following the same scheme as described previously. The resolving dose, which consisted of a 0.1% solution of the dosage form of the drug in a 5% glucose solution with a volume of 0.05 mL per guinea pig, was administered intradermally 21 days after the last day of sensitization into a previously […] area of the flank skin. After 30 min, both the experimental and control groups of animals were intracardially injected with 0.5 mL of 1% Evans blue solution. Thirty minutes later, the animals were euthanized using ether anesthesia. The skin where the drug was intradermally administrated was then separated, and the diameter of the blue spot was measured and recorded. The collected quantitative data were statistically analyzed using a significance level of p < 0.05.

concanavalin A = settings: for The Mass of the Hind Leg Foot, Con A, Me, Mean ± SD / The Mass of the Hind Leg Foot, Saline, Mc, Mean ± SD: female CBA mice, n = 10, weighed 1 h later; for The Mass of the Hind Leg Foot, Con A, Me, Mean ± SD: Con A 0.5% into pad 1 h post-injection; for The Mass of the Hind Leg Foot, Saline, Mc, Mean ± SD: saline into contralateral pad; for RI (reaction index to concanavalin A) / Relative Increase Me Over Mc: mice; for Relative Increase Me Over Mc: (Me − Mc)/Mc × 100%
Procedure: Its administration causes nonimmune activation of histamine release and inflammatory edema at the injection site.
The experiment was carried out in accordance with «Guidelines on the assessment of allergic properties of drugs» [30]. Healthy female CBA mice weighing 20–24 g were divided into five groups, in cages of 10. […] 10 mL/kg of 5% glucose solution was administered to the animals of control group. One hour post-injection, 0.5% Con A in isotonic sodium chloride solution (0.01 mL/10 g body mass) was injected into the pad of the hind legs and the same volume of isotonic solution of sodium chloride was injected into the contralateral extremity of mice in the experimental and control groups. One hour later, the mice were euthanized. The hind legs were amputated at the hock joint and weighed. Relative increase Me over Mc in each group was calculated using the formula (Me − Mc)/Mc × 100%, where Me is the mass of the foot injected with Con A and Mc is the mass of the foot injected with saline solution. The RI of the group of animals receiving the drug, exceeding 20%, is considered significant and indicates an inflammatory reaction to concanavalin A.

[2] = rat, in vivo, iv, 6.25 mg/kg
Procedure: Experimental animals were divided into groups of six at each time point. Flavancin was administered intravenously into the tail vein at a single dose of 6.25 mg/kg (5 TD). Control rats were injected with glucose solution in the same volume. Blood was collected 5, 15, 30 min and 1 h after injection into heparinized plastic tubes. Blood samples were centrifuged for 20 min at 1500 rpm. The supernatant was poured into tubes and stored at −20 °C until chromatographic analysis. Quantitative determination of flavancin in blood samples was carried out by high-performance liquid chromatography method (HPLC) with fluorimetric detection.
The method is based on the chromatography of specially prepared samples using a high-performance liquid chromatograph with a fluorescence detector and a reversed-phase column.
Gradient separation was performed at 40 °C on a column Jupiter C18 (250 mm × 4.6 mm, particle size 5 microns; Security Guard Cartridge, Phenomenex, Torrance, CA, USA). […] Detection was carried out using a fluorescence detector (Waters 2475, Waters Associates, Framingham, MA, USA) (excitation—240 nm, emission—330 nm). […] The lower limit of the quantitative determination of flavancin was 0.8 µg/mL. […]
Eight hundred µL of supernatant was replaced in 1.5 mL Eppendorf plastic tubes. […] The supernatant was analyzed by HPLC. […]

guinea pigs [3] = experiment: General anaphylaxis reaction (anaphylactic shock)
Procedure: In order to determine the anaphylactogenic properties of flavancin, we selected two technically simple and easily reproducible tests: general anaphylaxis reaction and active skin anaphylaxis.
Adult guinea pigs weighing 300–350 g were randomized into three groups (n = 10). […] These doses were determined based on the effectiveness in mice (ED100), with adjustments made using the coefficient of the animals’ body surface [28]. Saline was used as the control in the experiment. As for the reference agent, cattle serum was employed, with a dose of 0.1 mL for sensitizing doses and 0.5 mL for the resolving doses. The sensitizing doses were following a scheme: the first injection was given subcutaneously, while the subsequent two injections were administrated intramuscularly, with a 48 h interval between each injection. The resolving dose was administered intracardially 21 days after the last day of sensitization.

histamine = experiment: Histamine in blood plasma after intravenous administration (Histamine-ELISA); settings: for Histamine Level in plasma: female CBA mice, n = 10, single i.v., equitoxic doses (~MTD): vancomycin 300 mg/kg, flavancin 100 mg/kg, ELISA
Procedure: The amount of histamine in the blood plasma of mice was detected 0.5, 1.5 and 3 min after a single intravenous administration of drugs.
Female CBA mice weighing 18–20 g were divided into groups of 10 animals each. Flavancin was dissolved in 5% glucose and administrated via the tail vein to the mice at a dose equivalent to one TD (2.5 mg/kg) or MTD (100 mg/kg). […] Untreated animals were used as the control group.
The animals were euthanized after 0.5, 1 and 1.5 min in an experiment using equiterapeutic doses and 0.5, 1.5 and 3 min for an experiment with the use of equitoxic doses, and the blood samples were collected after the drug administration. Next, 500 µL of whole blood, which had been drawn into 10 µL of heparin (30–50 IU) was centrifuged for 20 min at 2000 rpm. To perform the histamine analyses, 20 µL of plasma was mixed with dilutions of saline at ratios of 1:10 and 1:20. The amount of histamine was determined using an automatic biochemical and enzyme immunoassay analyzer (ChemWell, Awareness Technology, Inc., Palm City, FL, USA). The histamine detection was performed using the Histamine-ELISA reagent kit (Tecan Group Company, Männedorf, Switzerland).

[4] = design: method as in PMID 1693055; settings: cited from earlier work
patients = patients treated with vancomycin; cited from earlier work
Procedure: This reaction is typically associated with intravenous administration of doses exceeding 1000 mg and administrated at a rate of less than 60 min [5]. […] More recently, the mechanism behind some IgE-independent reactions, previously referred to as pseudo ...

## CN[C@H](CC(C)C)C(=O)N[C@H]1C(=O)N[C@@H](CC(N)=O)C(=O)N[C@H]2C(=O)N[C@H]3C(=O)N[C@H](C(=O)N[C@H](C(=O)NCCNCc4ccccc4F)c4cc(O)cc(O)c4-c4cc3ccc4O)[C@H](O[C@H]3C[C@](C)(N)[C@@H](O)[C@H](C)O3)c3ccc(cc3)Oc3cc2cc(c3O[C@@H]2O[C@H](CO)[C@@H](O)[C@H](O)[C@H]2O[C@H]2C[C@](C)(N)[C@@H](O)[C@H](C)O2)Oc2ccc(cc2Cl)[C@H]1O [flavancin, N-(2((2-fluorobenzyl)amino)ethyl)amide of eremomycin hydrochloride]
Guinea pigs [1]; sensitizing 0.5 mg/kg x3, resolving 0.05 mL per pig of 0.1% solution 21 days after sensitization
  Blue Spot Diameter: 2.3 ± 0.6 cm
Guinea pigs [1]; sensitizing 1.5 mg/kg x3, resolving 0.05 mL per pig of 0.1% solution 21 days after sensitization
  Blue Spot Diameter: 2.4 ± 0.5 cm
Concanavalin A; drug i.v. at MTD
  The Mass of the Hind Leg Foot, Con A, Me, Mean ± SD: 151.5 ± 3.0 mg
  The Mass of the Hind Leg Foot, Saline, Mc, Mean ± SD: 139.3 ± 2.9 mg
  Relative Increase Me Over Mc: 8.8%
Concanavalin A; drug i.v. at TD
  The Mass of the Hind Leg Foot, Con A, Me, Mean ± SD: 154.3 ± 2.1 mg
  The Mass of the Hind Leg Foot, Saline, Mc, Mean ± SD: 142.1 ± 2.0 mg
  Relative Increase Me Over Mc: 8.5%
Concanavalin A; both doses studied (TD and MTD), below 20% means no pseudoallergic reaction
  RI (reaction index to concanavalin A): less than 20%
Concanavalin A; drug i.v. at MTD, RI exceeding 20% is significant
  RI (reaction index to concanavalin A): 7.3%
Concanavalin A; drug i.v. at TD, RI exceeding 20% is significant
  RI (reaction index to concanavalin A): 3.7%
[2]
  level at 1 h: 5000 ng/mL
Guinea pigs [3]; n = 10, sensitized with saline solution 1.0 mL x3, resolving flavancin 3.0 mg/kg intracardially
  Effect (general anaphylaxis reaction, anaphylactic shock): no
Guinea pigs [3]; n = 10, sensitizing 0.5 mg/kg (1TD) subcutaneous then twice intramuscularly, 48 h interval, resolving 3.0 mg/kg (6TD) intracardially 21 days after sensitization
  Effect (general anaphylaxis reaction, anaphylactic shock): does not induce anaphylactic shock and no
Guinea pigs [3]; n = 10, sensitizing 1.5 mg/kg (3TD) subcutaneous then twice intramuscularly, 48 h interval, resolving 3.0 mg/kg (6TD) intracardially 21 days after sensitization
  Effect (general anaphylaxis reaction, anaphylactic shock): does not induce anaphylactic shock and no
histamine; 0.5 min
  Histamine Level in plasma: 549.9 ± 92.6 µg/L
histamine; 1.5 min
  Histamine Level in plasma: 796.2 ± 56.3 µg/L
histamine; 3 min
  Histamine Level in plasma: 297.7 ± 54.9 µg/L
histamine; mice, equivalent (therapeutic) dose, after 30 s
  Histamine level in the blood compared to vancomycin: three times lower

## vancomycin [reference compound]
Concanavalin A; drug i.v. at MTD
  The Mass of the Hind Leg Foot, Con A, Me, Mean ± SD: 149.4 ± 3.0 mg
  The Mass of the Hind Leg Foot, Saline, Mc, Mean ± SD: 131.8 ± 3.6 mg
Concanavalin A; drug i.v. at TD
  The Mass of the Hind Leg Foot, Con A, Me, Mean ± SD: 158.1 ± 3.8 mg
  The Mass of the Hind Leg Foot, Saline, Mc, Mean ± SD: 140.4 ± 2.3 mg
[4]; 60-min intravenous infusion at a therapeutic dose, before the decrease
  Vancomycin concentration in the blood after infusion: 51.1 ± 9.2
[4]; 1 h after a 60-min intravenous infusion at a therapeutic dose
  Vancomycin concentration in the blood 1 h after infusion: 24.9 ± 2.9
patients
  Occurrence of Red Man Syndrome (non-IgE-mediated hypersensitivity): 4–47%
